Experimental data: patent US20250263370A1 (Tay Therapeutics Limited, priority 2022, published 2025)
Values after ≈ are worked out from the molar mass of the structure shown.

Columns and labels:
[1] = biological target: BRD4 BD1 (Homo sapiens (Human), UniProt O60885); test: NanoBRET bromodomain assay, NanoLuc-BRD4-BD1 fusion in HEK293 cells; assay type: cell-based; settings: top concentration 10 μM
[2] = Intrinsic clearance in liver microsomes, rat; assay type: in vitro ADME; settings: Method 1; for Half-Life (T1/2) (min), Rat: rat liver microsomes
Outline: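 Compound at 1 μM (0.1–1% DMSO) incubated at 37 °C with mouse or rat liver microsomes (0.5 mg/mL protein) and 1 mM NADPH in PBS pH 7.4; samples taken up to 60 min and quenched in cold acetonitrile. LC-MS/MS of percent remaining gave half-life and CLint; no-NADPH controls run.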

[3] = Thermodynamic solubility in FaSSIF pH 6.5 buffer; assay type: physicochemical; settings: Method 1 (UV-vis, 25° C., 24 hrs); for solubility thermodynamic at 24 h: FaSSIF buffer, 25 °C, pH 6.5, fassif, thermodynamic from solid
Experimental: FaSSIF v2 buffer is freshly prepared prior to use according to the suppliers' instructions and the pH adjusted to 6.5 using 1 M NaOH or 1 M HCl as required. From 1 mM working solution of test compound in DMSO, the λmax of the test compound is determined by scanning from 200 nm to 700 nm, in 1 nm steps with an EPOCH UV/Visible spectrophotometer (Biotek Instruments Inc.). A 12-point standard curve of compound concentration versus absorption at λmax is generated via two-fold serial dilutions of the 1 mM working solution with DMSO. Approximately 1 mg of test compound is accurately weighed into an Eppendorf tube and the appropriate volume of FaSSIF buffer is added to make a nominal concentration of 1 mg/mL. The tube is incubated on a rotator at 20 rpm, 25° C. for 24 hrs. Samples are then filtered using 0.45 μm filters (Sartorious, CAT #1776C) and the filtrate subjected to UV-vis spectroscopy analysis. The absorption at λmax is compared to the standard curve to determine the concentration of compound in solution after 24 hours.
FaSSIF buffer was prepared according to the suppliers' instructions and the pH adjusted to 6.5 using 1 M NaOH or 1 M HCl as required. […] A stir stick was added to each vial and vials sealed with a moulded PTDE/SIL 96-well plate cover. The plate was shaken at 25° C. at 1,100 rpm using an Eppendorf Thermomixer Comfort plate shaker. The plates were filtered using a vacuum manifold and diluted with a mixture of H2O and acetonitrile containing internal standard. The concentration of the test compound in the filtrate was determined by LCMS analysis with reference to the internal standards to determine the solubility in the buffer.

[4] = biological target: BRD4 BD2 (Homo sapiens (Human), UniProt O60885); test: NanoBRET bromodomain assay, NanoLuc-BRD4-BD2 fusion in HEK293 cells; settings: for IC50: BRD4 BD2 (IC50), NanoBRET, HEK293 cells, top concentration 10 μM; for Fold selectivity: IC50 for BRD4 BD1 divided by IC50 for BRD4 BD2, qualitative if an IC50 is at the upper limit;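 for all read-outs here: tracer displacement BRET read in transfected cells after 2 h compound exposure at 37 °C, signal in milliBRET units corrected against no-tracer background wells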
[5] = Intrinsic clearance in liver microsomes, mouse; assay type: in vitro ADME; settings: pH 7.4, Method 2, read-out: Half-Life (T1/2) (min), Mouse
Experimental: From stock solution of compound on 10 mM DMSO, a working solution of 0.1 mM is prepared by diluting the compound in DMSO. 6.25 μL of a 20 mg/mL solution of microsomes in PBS pH 7.4 buffer is added to 216.25 μL PBS pH 7.4 buffer (final microsome concentration—0.5 mg/mL). 25 μL of 10 mM solution of NADPH in PBS pH 7.4 buffer is added to the incubations (final NADPH concentration—1 mM). The mixture is pre-warmed to 37° C. for 10 minutes. 2.5 μL of test compound working solution is added (final compound concentration—1 μM with 1% DMSO). Aliquots of 30 μL are taken from the reaction solution at 0.5, 5, 15, 30 and 60 minutes. The reaction was stopped by the addition of 5 volumes of cold acetonitrile with IS (100 nM alprazolam, 200 nM caffeine and 100 nM tolbutamide). Samples were centrifuged at 3, 220 g for 40 minutes. Aliquots of 100 μL of the supernatant are mixed with 100 μL of ultra-pure H2O and used for LC-MS/MS analysis. The percent compound remaining at each time point is calculated with respect to that of the 0.5 min sample. The data are analysed to calculate half-life. Control experiments are run without NADPH and blank samples are prepared using DMSO without the test compound.
A 50 mM stock solution (in DMSO) is prepared for the compound. From the stock solution, a working solution of 0.5 mM is prepared by diluting the compound in DMSO. This concentration of working solution is prepared considering a final concentration of 1 uM with 0.1% DMSO. The compound (1 μL of working solution) is spiked in PBS with pH 7.4 ([…]) at a concentration of 1 μM. Subsequently, 110 μL of 10 mM NADPH is added (as a co-factor). The sample is incubated at 37° C. for 15 min. Following this, pre-warmed liver microsomes (27.5 μL; final protein conc. 0.5 mg/mL) are added. The samples are then incubated at 37° C. Aliquots of samples are withdrawn at 0, 5, 15, 30, 45 and 60 min. The reaction is stopped by using chilled acetonitrile containing internal standard. The samples are centrifuged, and the supernatants analysed by LC-MS/MS. The percent compound remaining at each time point is calculated with respect to that of the 0 min sample. The data are then analysed to calculate half-life and intrinsic clearance (CLint). Control experiments are run without NADPH and blank samples are prepared using DMSO without the test compound.

Compound	IC50 [1] [nM]	Half-Life (T1/2) (min), Rat [2] [min]	solubility thermodynamic at 24 h [3] [µM]	IC50 [4] [nM]	Fold selectivity [4]	Thermodynamic Solubility FaSSIF pH 6.5 (μM) [3] [μM]	half-life at 1 μM ([2]; rat, liver microsomes, pH 7.4, rat liver microsomes, read-out: Half-Life (T1/2) (min), Rat) [min]	half-life at 1 μM [5] [min]
CNC(=O)c1[nH]c(C(=O)N[C@H]2CC[C@H](OC)CC2)cc1OC(C)c1ccccc1 (single isomer, unassigned) [Example 99, N^5-(trans-4-methoxycyclohexyl)-N^2-methyl-3-(1-phenylethoxy)-1H-pyrrole-2,5-dicarboxamide]	≥ 10000	39	359 (≈ 143 µg/mL)	50 to 200	XX (Fold >50 and ≤200)			
CNC(=O)c1[nH]c(C(=O)N[C@H]2CC[C@H](OC)CC2)cc1OC(C)c1ccccc1 (single isomer, unassigned) [Example 100, N^5-(trans-4-methoxycyclohexyl)-N^2-methyl-3-(1-phenylethoxy)-1H-pyrrole-2,5-dicarboxamide]	≥ 10000	19		> 10000	— (Fold ≥0 and ≤2)	377		
CNC(=O)c1[nH]c(C(=O)NC2CCC(F)(F)CC2)cc1OC(C)c1ccccc1 (single isomer, unassigned) [Example 103, N^5-(4,4-difluorocyclohexyl)-N^2-methyl-3-(1-phenylethoxy)-1H-pyrrole-2,5-dicarboxamide]	≥ 10000		57 (≈ 23.1 µg/mL)	50 to 200	XX (Fold >50 and ≤200)		19	
CNC(=O)c1[nH]c(C(=O)NC2CCC(F)(F)CC2)cc1OC(C)c1ccccc1 (single isomer, unassigned) [Example 104, N^5-(4,4-difluorocyclohexyl)-N^2-methyl-3-(1-phenylethoxy)-1H-pyrrole-2,5-dicarboxamide]	≥ 10000	10		> 10000	— (Fold ≥0 and ≤2)	47		
CNC(=O)c1[nH]c(C(=O)NC2CC2)cc1O[C@@H](C)c1ccccc1 [Example 106, (S)—N^5-cyclopropyl-N^2-methyl-3-(1-phenylethoxy)-1H-pyrrole-2,5-dicarboxamide]	≥ 10000			50 to 200	XX (Fold >50 and ≤200)			> 60
CNC(=O)c1[nH]c(C(=O)NC2COC2)cc1O[C@@H](C)c1ccccc1 [Example 107, (S)—N^2-methyl-N^5-(oxetan-3-yl)-3-(1-phenylethoxy)-1H-pyrrole-2,5-dicarboxamide]	≥ 10000			50 to 200	XX (Fold >50 and ≤200)			> 60
CNC(=O)c1[nH]c(C(=O)N[C@H]2C[C@H](O)C2)cc1O[C@@H](C)c1ccccc1 [Example 108, N^5-(trans-3-hydroxycyclobutyl)-N^2-methyl-3-((S)-1-phenylethoxy)-1H-pyrrole-2,5-dicarboxamide]	≥ 10000			50 to 200	XX (Fold >50 and ≤200)			> 60
CNC(=O)c1[nH]c(C(=O)NC2CC(F)(F)C2)cc1O[C@@H](C)c1ccccc1 [Example 109, (S)—N^5-(3,3-difluorocyclobutyl)-N^2-methyl-3-(1-phenylethoxy)-1H-pyrrole-2,5-dicarboxamide]	≥ 10000			200 to 1000	X (Fold >2 and ≤50)			> 60
CNC(=O)c1[nH]c(C(=O)N[C@H]2CCC(F)(F)C2)cc1O[C@@H](C)c1ccccc1 [Example 110, N^5-((S)-3,3-difluorocyclopentyl)-N^2-methyl-3-((S)-1-phenylethoxy)-1H-pyrrole-2,5-dicarboxamide]	≥ 10000			200 to 1000	X (Fold >2 and ≤50)			> 60
CNC(=O)c1[nH]c(C(=O)N[C@@H]2CCC(F)(F)C2)cc1O[C@@H](C)c1ccccc1 [Example 111, N^5-((R)-3,3-difluorocyclopentyl)-N^2-methyl-3-((S)-1-phenylethoxy)-1H-pyrrole-2,5-dicarboxamide]	≥ 10000			200 to 1000	X (Fold >2 and ≤50)			> 60
CNC(=O)c1[nH]c(C(=O)NCCC(F)(F)F)cc1O[C@@H](C)c1ccccc1 [Example 112, (S)—N^2-methyl-3-(1-phenylethoxy)-N^5-(3,3,3-trifluoropropyl)-1H-pyrrole-2,5-dicarboxamide]	≥ 10000			200 to 1000	X (Fold >2 and ≤50)			> 60
CNC(=O)c1[nH]c(C(=O)N[C@H]2CCOC2)cc1O[C@@H](C)c1ccccc1 [Example 113, N^2-methyl-3-((S)-1-phenylethoxy)-N^5-((S)-tetrahydrofuran-3-yl)-1H-pyrrole-2,5-dicarboxamide]	≥ 10000			200 to 1000	X (Fold >2 and ≤50)			> 60
CNC(=O)c1[nH]c(C(=O)N[C@@H]2CCOC2)cc1O[C@@H](C)c1ccccc1 [Example 114, N^2-methyl-3-((S)-1-phenylethoxy)-N^5-((R)-tetrahydrofuran-3-yl)-1H-pyrrole-2,5-dicarboxamide]	≥ 10000			200 to 1000	X (Fold >2 and ≤50)			> 60
CNC(=O)c1[nH]c(C(=O)N[C@H]2CC[C@H](O)C2)cc1O[C@@H](C)c1ccccc1 [Example 115, N^5-((1S,3S)-3-hydroxycyclopentyl)-N^2-methyl-3-((S)-1-phenylethoxy)-1H-pyrrole-2,5-dicarboxamide]	≥ 10000			50 to 200	XX (Fold >50 and ≤200)			> 60
CNC(=O)c1[nH]c(C(=O)NC23CC(C2)C3)cc1O[C@@H](C)c1ccccc1 [Example 117, (S)—N^5-(bicyclo [1.1.1]pentan-1-yl)-N^2-methyl-3-(1-phenylethoxy)-1H-pyrrole-2,5-dicarboxamide]	≥ 10000			50 to 200	XX (Fold >50 and ≤200)			> 60
CNC(=O)c1[nH]c(C(=O)NC23CC(O)(C2)C3)cc1O[C@@H](C)c1ccccc1 [Example 118, (S)—N^5-(3-hydroxybicyclo [1.1.1]pentan-1-yl)-N^2-methyl-3-(1-phenylethoxy)-1H-pyrrole-2,5-dicarboxamide]	≥ 10000			50 to 200	XX (Fold >50 and ≤200)			> 60
